This is an account of results in PubChem BioAssay AID651549 (Sanford-Burnham Center for Chemical Genomics, 2012).

The experiment is described as follows: GAPDH and PEG-3 promoter luciferase suppression – cell-based, luminescence, set 2, counter-screen for PEG-3 promoter inhibitor project, dose response (AID 651549). The following applies: HeLa PEG-Prom-luciferase or GAPDH-reporter, 6/24 h.

The structures appear in SMILES notation. Activity calls are given as the source filed them.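 How the source made its calls: active means compounds blocking the PEG3 reporter with IC50 up to 10 µM at either incubation, yet sparing the GAPDH control reporter; inactive means the rest.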 Where only a bound is given, the exact number is not on record here.

Turning to `Cc1c(/C(O)=C2/C(=O)C(=O)N(Cc3cccnc3)C2c2ccccn2)cnn1-c1ccccc1` (centres undefined), the IC50 is, setting by setting: (GAPDH, run 1, 6 h) 1.01 µM; (GAPDH, run 1, 24 h) 1.92 µM; (PEG-3, run 1, 6 h) 1.58 µM; (PEG-3, run 1, 24 h) 5.27 µM.
`CC1CC(C)C(=O)C(C(CC2CC(=O)NC(=O)C2)OC(=O)CC(=O)c2ccccc2)C1` (centres undefined): the IC50 by setting is: (GAPDH, run 1, 6 h) 1.36 µM; (GAPDH, run 1, 24 h) 7.25 µM; (PEG-3, run 1, 6 h) 5.46 µM. For the same molecule, under “PEG-3, run 1, 24 h”, the IC50 result was “inactive”.
Take `CCOc1ccc(-n2cc(-c3ccccc3)c3c(N4CCOCC4)ncnc32)cc1`: the IC50 (GAPDH, run 1, 6 h) was > 99 µM (inactive); the IC50 (GAPDH, run 1, 24 h) is > 99 µM (inactive); the IC50 (PEG-3, run 1, 6 h) is > 99 µM (inactive); the IC50 (PEG-3, run 1, 24 h) is > 99 µM (inactive).
As to `COc1ccc(Nc2ncnc3ccc(Br)cc23)c(OC)c1`, the IC50 by setting is: (GAPDH, run 1, 6 h) 1.16 µM; (GAPDH, run 1, 24 h) 1.68 µM; (PEG-3, run 1, 6 h) 1.05 µM; (PEG-3, run 1, 24 h) 0.798 µM.
Taken in the same sequence, the figures for `Cc1ccc2nc(NC(=O)CSCC(=O)OCC(=O)c3ccccc3)sc2c1` were “inactive”, 5.63 µM, “inactive” and “inactive”.
Taken in the same sequence, the figures for `CN1OC[C@@H]2CN(S(=O)(=O)c3cccc(C(F)(F)F)c3)[C@H](c3ccc(-c4cc5ccccc5o4)cc3)C[C@@H]21` were “inactive”, 6.66 µM, “inactive” and “inactive”.
As for `Cc1ccc(S(=O)(=O)NC(CC(C)C)C(=O)NCC(c2ccco2)N2CCCCC2)cc1` (centres undefined), the IC50 result reads like this: (GAPDH, run 1, 6 h) “inactive”; (GAPDH, run 1, 24 h) “inactive”; (PEG-3, run 1, 6 h) “inactive”; (PEG-3, run 1, 24 h) “inactive”.
In the case of `Cc1cccc(NC(=O)c2oc3ccc(S(=O)(=O)N4CCOCC4)cc3c2C)c1C`, the IC50 result (GAPDH, run 1, 6 h) is “inactive”. The IC50 is 6.39 µM (GAPDH, run 1, 24 h); > 99 µM (inactive) (PEG-3, run 1, 6 h); 8.47 µM (PEG-3, run 1, 24 h).
Taken in the same sequence, the figures for `CC(CCc1ccccc1)NC(=O)COC(=O)c1ccc(S(C)(=O)=O)c([N+](=O)[O-])c1` (centres undefined) were “inactive”, “inactive”, “inactive” and 9.86 µM.
Taken in the same sequence, the figures for `CC(=O)OC1CC[C@]2(C#N)[C@H]3CC[C@]4(C)[C@H](C5C=CC(=O)O5)CCC4(O)C3CCC2(O)C1` (some centres undefined) were 6.51 µM, “inactive”, 1.6 µM and “inactive”.
With `CC(=O)OC1(C)CC(C)C(=O)C(C(O)CC2CC(=O)NC(=O)C2)C1` (centres undefined), the IC50 runs as follows: (GAPDH, run 1, 6 h) below 1 µM; (GAPDH, run 1, 24 h) below 1 µM; (PEG-3, run 1, 6 h) below 1 µM; (PEG-3, run 1, 24 h) 0.353 µM.
Consider `CC(=O)c1sc2c(c1OC(=O)c1ccc(Cl)cc1Cl)c(=O)n(-c1ccccc1)c(=S)n2-c1ccccc1`, for which the IC50 runs as follows: (GAPDH, run 1, 6 h) 0.853 µM; (GAPDH, run 1, 24 h) 0.766 µM; (PEG-3, run 1, 6 h) > 99 µM (inactive); (PEG-3, run 1, 24 h) 5.59 µM.
Taken in the same sequence, the figures for `COC1CC(C)C(OC)c2cc(O)cc(c2O)NC(=O)C(C)=CC=CC(C)C(OC(N)=O)C(C)=CC(C)C1OC` (centres undefined) were “inactive”, “inactive”, “inactive” and “inactive”.
Taken in the same sequence, the figures for `Cc1cc(C)cc(NS(=O)(=O)c2ccc3[nH]cc(C(=O)NCc4ccco4)c(=O)c3c2)c1` were “inactive”, 2.43 µM, > 99 µM (inactive) and 5.44 µM.
Taken in the same sequence, the figures for `Cc1ccc(-c2cn3nc(C)c(C)nc3n2)cc1` were “inactive”, > 99 µM (inactive), “inactive” and > 99 µM (inactive).
Turning to `CCC(C)(C)c1ccc(Oc2ccc(N)cc2)cc1`, the IC50 is, setting by setting: (GAPDH, run 1, 6 h) 5.21 µM; (GAPDH, run 1, 24 h) 0.566 µM; (PEG-3, run 1, 6 h) 7.48 µM; (PEG-3, run 1, 24 h) 7.31 µM.
